Experimental findings from the supplement of paper PMC11061612 are described below.

What all share (experiment): Bliss excess, mean over the matrix (fraction); higher = more synergy
For test [1], the system named is CAL-51 (Breast Carcinoma). Summed up: (§1)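 Bliss excess equals the observed combination effect minus the expected value EA + EB − EA·EB, where EA and EB are the effects of each agent alone. Combination Emax is the second-highest inhibition within the matrix. Inhibition was scaled from CellTiter-Glo 2.0 luminescence, with 0 set by vehicle wells and 1 by blank wells, after 72 hours of two-drug dosing of cells plated in 1536-well plates.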

Test [2] concerns CAL-54 (Kidney Carcinoma). Summed up: as §1
For test [3], the system named is HCC-15 (Squamous Cell Lung Carcinoma). In short, it runs like this: as §1
Test [4] relates to HDLM-2 (Hodgkin's Lymphoma). In short, it runs like this: as §1
Another test has as its system HMV-II (Melanoma). In short, it runs like this: as §1
Test [5] relates to Hs-633T (Other Solid Carcinomas). Summed up: as §1
Test [6] concerns KYSE-410 (Esophageal Squamous Cell Carcinoma). Summed up: as §1
In test [7] the test system is LU-139 (Small Cell Lung Carcinoma). In short, it runs like this: as §1
The subject of test [8] is MHH-PREB-1 (B-Cell Non-Hodgkin's Lymphoma). In short, it runs like this: as §1
Another test relates to NCI-H2795 (Mesothelioma). Summed up: as §1
A further test concerns NCI-H28 (Mesothelioma). In short, it runs like this:
as §1

Test [9] concerns OC-314 (Ovarian Carcinoma). Summed up: as §1
Test [10] relates to PCI-30 (Head and Neck Carcinoma). Summed up: as §1
Test [11] has as its system SK-OV-3 (Ovarian Carcinoma). In short, it runs like this: as §1
For test [12], the system named is SUP-T1 (T-Lymphoblastic Leukemia). In short, it runs like this:
as §1

Test [13] relates to SW1116 (Colorectal Carcinoma). In short, it runs like this: as §1
The test system of test [14] is SW1271 (Small Cell Lung Carcinoma). In short, it runs like this: as §1
The subject of test [15] is SW626 (Colorectal Carcinoma). Summed up: as §1
For test [16], the system named is TE-4 (Esophageal Squamous Cell Carcinoma). Summed up: as §1
Test [17] deals with UMC-11 (Other Solid Carcinomas). Summed up: as §1

With `Cc1c2c(nn1C)CSCc1cc(n(C)n1)CSc1cc(c3ccccc3c1)OCCCc1c(C(=O)O)n(C)c3c-2c(Cl)ccc13` [AZD5991] + C1CN(CCC1(C(=O)N[C@@H](CCO)C2=CC=C(C=C2)Cl)N)C3=NC=NC4=C3C=CN4 [Capivasertib] (first compound max 1 µM, 7x7, partner max 3 µM), the Bliss excess is 0.0392 in test [1]; 0.0428 in test [2]; 0.0441 in [3]; 0.0369 in test [4]; -0.0307 in the test on HMV-II (Melanoma); 0.0123 in [5]. For the same molecule, the Bliss excess in test [6] is -0.0218; in test [7], -0.0056; in test [8] it was -0.0283; in the test on NCI-H2795 (Mesothelioma), 0.119; in the test on NCI-H28 (Mesothelioma) it was -0.0315; in [9], 0.0362. For the same molecule, the Bliss excess was 0.0204 in test [10]; -0.0065 in [11]; -0.0218 in test [12]; -0.0238 in test [13]; -0.0664 in test [14]; -0.018 in test [15]. Further, the Bliss excess was found to be 0.0626 in test [16] and 0.0253 in test [17].

Turning to `CN(C)CCCOc1ccc(-c2ccc3ncc4c(c3c2)n(C2CCOCC2)c(=O)n4C)cn1` [AZD0156] + CCN(CCO)CCCOc1ccc2c(Nc3cc(CC(=O)Nc4cccc(F)c4)[nH]n3)ncnc2c1 [AZD2811] (first compound max 1 µM, 7x7, partner max 1 µM), the Bliss excess in test [1] is 0.0226; in test [2] it was -0.0129; in [3], -0.0506; in test [4], -0.0208; with HMV-II (Melanoma), -0.0133; in [5], -0.0139. In addition, the Bliss excess in test [6] is -0.0431; in test [7], -0.0441; in test [8], 0.0053; in the test on NCI-H2795 (Mesothelioma), 0.0025; with NCI-H28 (Mesothelioma), -0.0381; in test [9] it was 0.0078. In addition, the Bliss excess in [10] is -0.013; in test [11] it was -0.0533; in [12] it was 0.0321; in test [13] it was -0.0339; in [14], -0.0322; in test [15], -0.0392. In addition, the Bliss excess is -0.0129 in test [16] and -0.0622 in [17].

For `CC1(C)CCC(CN2CCN(c3ccc(C(=O)NS(=O)(=O)c4ccc(NCC5CCOCC5)c([N+](=O)[O-])c4)c(Oc4cnc5[nH]ccc5c4)c3)CC2)=C(c2ccc(Cl)cc2)C1` [Venetoclax] + Cc1cc2ncnn2cc1Nc1ncc2c(n1)n(C1CCOCC1)c(=O)n2C [AZD7648] (first compound max 1 µM, 7x7, partner max 10 µM), the Bliss excess in [1] is -0.0323; in test [2] it was -0.0295; in test [3], -0.0033; in test [4], 0.0551; with HMV-II (Melanoma), -0.0407; in [5] it was -0.0154. The Bliss excess was -0.0471 in test [6]; -0.0013 in [7]; 0.0028 in test [8]; -0.0113 with NCI-H2795 (Mesothelioma); -0.0166 with NCI-H28 (Mesothelioma); -0.0115 in test [9]. Moreover, the Bliss excess is -0.0545 in test [10]; -0.134 in test [11]; -0.0109 in [12]; -0.0232 in [13]; -0.115 in test [14]; -0.0098 in [15]. Further, the Bliss excess is -0.0106 in test [16] and -0.0465 in [17].

On to `Cc1cc2ncnn2cc1Nc1ncc2c(n1)n(C1CCOCC1)c(=O)n2C` [AZD7648] + C[C@@H]1COCCN1C2=NC(=NC(=C2)C3(CC3)[S@](=N)(=O)C)C4=C5C=CNC5=NC=C4 [AZD6738] (first compound max 10 µM, 7x7, partner max 10 µM), for which the Bliss excess is 0.0017 in test [1]; -0.0183 in test [2]; 0.0093 in test [3]; -0.0357 in test [4]; 0.0134 in the test on HMV-II (Melanoma); -0.0138 in test [5]. For the same molecule, the Bliss excess in test [6] stood at 0.0285; in test [7], 0.0121; in [8], 0.0336; with NCI-H2795 (Mesothelioma), 0.0603; in the test on NCI-H28 (Mesothelioma) it was 0.081; in [9] it was 0.0565. Moreover, the Bliss excess in test [10] was -0.0101; in [11] it was 0.0411; in test [12] it was 0.0052; in test [13] it was 0.0285; in test [14] it was 0.0274; in test [15], 0.0302. The Bliss excess in test [16] stood at 0.054; in test [17], 0.0002.

For `CN(CCO)CC[C@H](CSc1ccccc1)Nc1ccc(S(=O)(=O)NC(=O)c2ccc(N3CCC([C@@H](O)c4ccccc4-c4ccc(Cl)cc4)CC3)cc2)cc1S(=O)(=O)C(F)(F)F` [AZD4320] + C1CN(CCC1(C(=O)N[C@@H](CCO)C2=CC=C(C=C2)Cl)N)C3=NC=NC4=C3C=CN4 [Capivasertib] (first compound max 1 µM, 7x7, partner max 3 µM), the Bliss excess was -0.0089 in [1]; -0.0694 in test [2]; -0.0082 in test [3]; -0.0284 in [4]; -0.0431 with HMV-II (Melanoma); -0.0193 in test [5]. Further, the Bliss excess was -0.0686 in test [6]; -0.0328 in test [7]; -0.029 in test [8]; -0.0572 in the test with NCI-H2795 (Mesothelioma); -0.0821 with NCI-H28 (Mesothelioma); -0.0007 in [9]. Also, the Bliss excess is -0.0402 in [10]; -0.0663 in test [11]; -0.0639 in test [12]; -0.0612 in test [13]; -0.0606 in test [14]; -0.0682 in test [15]. Moreover, the values for the Bliss excess in [16] and in test [17] were -0.0317 and -0.0908, respectively.

For the molecule `Cc1c2c(nn1C)CSCc1cc(n(C)n1)CSc1cc(c3ccccc3c1)OCCCc1c(C(=O)O)n(C)c3c-2c(Cl)ccc13` [AZD5991] + Cc1cc2ncnn2cc1Nc1ncc2c(n1)n(C1CCOCC1)c(=O)n2C [AZD7648] (first compound max 1 µM, 7x7, partner max 10 µM), the Bliss excess is -0.0529 in [1]; -0.0697 in test [2]; -0.0436 in [3]; 0.0007 in test [4]; -0.067 in the test with HMV-II (Melanoma); -0.0097 in [5]. Further, the Bliss excess in test [6] is -0.0184; in [7], -0.013; in [8], -0.0029; in the test with NCI-H2795 (Mesothelioma), -0.0168; with NCI-H28 (Mesothelioma) it was -0.0051; in [9], 0.0063. For the same molecule, the Bliss excess in test [10] was -0.0572; in test [11], -0.032; in [12] it was 0.0115; in [13], -0.0466; in test [14], -0.0308; in [15], -0.0069. The Bliss excess in test [16] is -0.025; in [17] it was -0.0716.

For the molecule `CCN(CCO)CCCOc1ccc2c(Nc3cc(CC(=O)Nc4cccc(F)c4)[nH]n3)ncnc2c1` [AZD2811] + C=CCn1c(=O)c2cnc(Nc3ccc(N4CCN(C)CC4)cc3)nc2n1-c1cccc(C(C)(C)O)n1 [AZD1775] (first compound max 1 µM, partner max 1 µM), the Bliss excess in test [1] was 0.0511; in test [2], -0.032; in test [3], -0.0049; in test [4], 0.0252; in the test on HMV-II (Melanoma), -0.0339; in [5], -0.008. For the same molecule, the Bliss excess is -0.0179 in test [6]; -0.0426 in [7]; -0.0254 in test [8]; -0.0117 in the test with NCI-H2795 (Mesothelioma); -0.0541 in the test on NCI-H28 (Mesothelioma); 0.0976 in [9]. The Bliss excess in [10] was 0.0191; in [11], -0.068; in test [12], 0.0302; in test [13], -0.0275; in test [14], -0.02; in [15], -0.0443. The Bliss excess is -0.0057 in test [16] and 0.0014 in test [17].
